Test [1] relates to HCS imaging, dynein-mediated cargo transport inhibition. The experiment in a line: dynein cargo transport inhibitors, potency, dose response, imaging, high-content imaging (AID 463136).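 Also: mouse mammary adenocarcinoma 3617.4 cells expressing GFP-tagged rat glucocorticoid receptor.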
Experiment in test [2]: as above
The settings on record: HCS imaging, dynein-mediated cargo transport inhibition; inhibition at max concentration; at 50 µM; stronger effect = higher value.

This note sets out measurements from PubChem BioAssay AID463136 (University of Pittsburgh Molecular Library Screening Center, 2010).

Results filed as inconclusive are left out. Activity calls are given as the source filed them. No rule for the calls is given here.

Regarding `Cc1nn(C)c(C(=O)Sc2cccc(Cl)c2)c1[N+](=O)[O-]`, the IC50 (in general, the concentration that gives 50% inhibition) in test [1] is > 50 µM (inactive). In addition, the inhibition (as a rule, the change of the read-out against control, counted positive when it falls) in test [2] came to 10.5%.
For `CC(=O)O[C@@H]1C[C@H]2C(C)(C)C(=O)C=C[C@]2(C)[C@H]2CC[C@@]3(C)[C@H](c4ccoc4)OC(=O)[C@H]4O[C@]43[C@@]21C` the same measures were 33.6 µM and 77.9%.
Regarding `O=c1c(Cl)c(Cl)cnn1Cc1ccc(F)cc1`, the IC50 in test [1] is 10.3 µM. Also, in test [2], the inhibition came to 80.4%.
With `CS(=O)(=O)c1cc([N+](=O)[O-])c(Sc2nc3ccccc3[nH]2)c([N+](=O)[O-])c1`, the IC50 in test [1] was > 50 µM (inactive). Also, in test [2], the inhibition was found to be 22.9%.
For `CC(=O)Cn1ncc(Br)c(Br)c1=O` the same measures were 5.4 µM and 78.5%.
The matching figures for `COc1ccc([N+](=O)[O-])c(S(=O)(=O)c2ccc(Cl)cc2)n1`: > 50 µM (inactive) and 34.4%.
For `COC(=O)/C=C\C(=O)Nc1cccc([N+](=O)[O-])c1` the same measures were > 50 µM (inactive) and 5.31%.
Consider `O=C(Nc1ccc(F)cc1)c1nn(-c2ccccc2)c(=O)cc1Cl`, for which the IC50 in test [1] is 35.7 µM. In test [2], the inhibition was found to be 76.4%.
For `COc1ccccc1NS(=O)(=O)c1cc([N+](=O)[O-])ccc1N/N=C/c1c(C)[nH]c2ccccc12` the same measures were > 50 µM (inactive) and 16.5%.
Turning to `COc1ccc(-n2nc(C#N)c(Cl)cc2=O)cc1`, the IC50 in test [1] was 8.09 µM. The inhibition in test [2] stood at 65.4%.
Consider `CC1(C)CC(=O)C2=C(C1)OC1=C(C(=O)CC(C)(C)C1)C2c1ccc(O)cc1O`, for which the IC50 in test [1] was 22.6 µM. In addition, the inhibition in test [2] is 65.8%.
For `CCCCc1cc(O)c(CCCC)c(O)c1`, the half-maximal inhibitory concentration (IC50) in test [1] is 2.31 µM. For the same molecule, the inhibition in test [2] came to 76.8%.
For `CSc1nnc(C)c(/C=C/Nc2ccc(C)cc2)n1` the same measures were 31 µM and 109%.
The matching figures for `C[C@@H]1C[C@@H]2O[C@H]2/C=C\C=C\C(=O)Cc2c(Cl)c(O)cc(O)c2C(=O)O1`: 0.281 µM and 49.4%.
For `Cn1c(=O)c(NCCO)c2c3c(cccc31)C(=O)c1ccccc1-2` the same measures were > 50 µM (inactive) and -13.2%.
With `O=C1C(Cl)=C(Nc2ccc3cn[nH]c3c2)C(=O)c2ccccc21`, the half-inhibitory concentration (IC50) in test [1] was 18.2 µM. For the same molecule, the inhibition in test [2] amounted to 66.6%.
Take `Cc1ccc(C(=O)Oc2oc(-c3ccco3)nc2C=Nc2ccc(Cl)cc2)cc1`: in test [1], the half-inhibitory concentration (IC50) was 46.3 µM. The inhibition in test [2] was 65.2%.
For `CC[n+]1c(/C=C/C=C/N(C(C)=O)c2ccccc2)sc2cc(OC)ccc21` the same measures were 6.65 µM and 93.8%.
For `CCCNC(=O)c1nnsc1S(=O)c1ccc(Cl)cc1` (stereo not drawn), the IC50 in test [1] is 7.07 µM. The inhibition in test [2] was 77%.
In the case of `N#CC(C#N)=C1C=C2C=C(N3CCOCC3)CCC2CC1` (stereo not drawn), in test [1], the IC50 is 42.8 µM. For the same molecule, in test [2], the inhibition was 99%.
For `Cc1ccc(Sc2ccc(NC(=O)CCl)cc2)cc1C` the same measures were > 50 µM (inactive) and 16.3%.
Consider `CCCCNC1C(CC)C(CCC)C(C#N)(C#N)C1(C#N)C#N` (stereo not drawn), for which the IC50 in test [1] was 21.7 µM. Further, the inhibition in test [2] came to 75.2%.
The matching figures for `CCCn1c(CC)nc([N+](=O)[O-])c1S(=O)(=O)c1ccccc1`: 7.21 µM and 85.2%.
Regarding `N#Cc1c(Cl)c(Cl)c2nnc(-c3ccc(Br)cc3)n2c1Cl`, the IC50 in test [1] was > 50 µM (inactive). The inhibition in test [2] amounted to 40.1%.
Consider `O=[N+]([O-])c1ccc(/C=C/C2=NN(c3ccccc3)C(c3ccco3)C2)o1` (stereo not drawn), for which the IC50 in test [1] is > 50 µM (inactive). Further, in test [2], the inhibition is 37.1%.
As to `Cc1cc(C(=O)Cn2ncc(Cl)c(Cl)c2=O)c(C)n1CC(F)(F)F`, the IC50 in test [1] is 7.79 µM. Besides, the inhibition in test [2] turned out to be 78.6%.
With `COc1cc(C2Oc3ccccc3C=C2[N+](=O)[O-])cc(OC)c1OC` (stereo not drawn), the IC50 in test [1] is 25.5 µM. In addition, the inhibition in test [2] was found to be 63.7%.
As to `O=C(/C=C/c1ccccn1)c1cc(Br)ccc1O`, the IC50 in test [1] is 28.3 µM. For the same molecule, in test [2], the inhibition was 69.4%.
For `COC(=O)c1cc(=O)n(Cc2cccs2)c(=Nc2ccccc2)s1` the same measures were > 50 µM (inactive) and 32.2%.
The matching figures for `O=c1cc(-c2c(F)c(F)c(F)c(F)c2F)oc2c(F)c(F)c(F)c(F)c12`: 27.7 µM and 92%.
The matching figures for `O=C(COc1ccc(/C=C\[N+](=O)[O-])cc1)N1CCOCC1`: > 50 µM (inactive) and 13.7%.
As to `N=c1oc2c3c4c(cc2cc1C(=O)Nc1ccccc1)CCCN4CCC3`, the IC50 in test [1] is > 50 µM (inactive). Besides, in test [2], the inhibition came out at 99%.
Take `CCCn1nc([N+](=O)[O-])c(C(C#N)c2nc3ccccc3s2)c(Cl)c1=O` (stereo not drawn): in test [1], the half-inhibitory concentration (IC50) was 14.6 µM. Also, the inhibition in test [2] was found to be 97%.
As for `Cc1ccc(C(C)C)c(OCC(=O)NN=C(CCl)CCl)c1`, in test [1], the IC50 is > 50 µM (inactive). Also, in test [2], the inhibition amounted to 36.3%.
`N/C(=C\C(=O)c1cc(Cl)ccc1O)C(Cl)(Cl)Cl`: the IC50 in test [1] is 33 µM. Moreover, the inhibition in test [2] is 76.1%.
For `Cc1[nH]c2ccccc2c1/C=N/Nc1ccc([N+](=O)[O-])cc1S(=O)(=O)Nc1ccc(Cl)cc1` the same measures were 22.8 µM and 112%.
In the case of `O=C(CCl)N(Cc1ccccc1)c1ccccc1`, the half-inhibitory concentration (IC50) in test [1] is 10 µM. In addition, the inhibition in test [2] was 69.4%.
Turning to `Nc1c(C(=O)c2ccc(Cl)cc2)sc2nsc(SCCN3CCOCC3)c12`, the IC50 in test [1] was > 50 µM (inactive). Further, the inhibition in test [2] was 7.23%.
Turning to `Cn1c(=O)c([N+](=O)[O-])c(Cl)c2ccccc21`, the IC50 in test [1] is 39.4 µM. Moreover, the inhibition in test [2] came to 84%.
The matching figures for `N#CC(C#N)=C1C=CC=CN1/C(=C\c1ccco1)C(=O)c1ccc(Br)cc1`: > 50 µM (inactive) and 33.6%.
For `CCN1CCN(C2=C(Cl)C(=O)N(Cc3ccccc3)C2=O)CC1` the same measures were 20.9 µM and 87.8%.
The matching figures for `COCc1cc(S(=O)c2ccc(Cl)cc2)nc(C)n1` (stereo not drawn): 15.6 µM and 86.5%.
Regarding `COc1cc(/C=C(/C(=O)c2cccs2)c2nc3ccccc3[nH]2)cc(OC)c1O`, the IC50 in test [1] was 13.8 µM. For the same molecule, in test [2], the inhibition was 61.2%.
The matching figures for `CC(C)(C)C(=O)/C=c1\s/c(=C\c2ccc(-c3ccc([N+](=O)[O-])cc3)o2)c(=O)n1CC(=O)NC(N)=O`: 0.825 µM and 98.8%.
The matching figures for `Cc1ccc(NC(=O)CCl)cc1S(=O)(=O)N1CCCCCC1`: 10.6 µM and 88.6%.
For `CN1CCN(S(=O)(=O)c2ccc(Sc3nnnn3-c3ccccc3)c([N+](=O)[O-])c2)CC1` the same measures were 17.5 µM and 75.4%.
As for `Cc1nc([N+](=O)[O-])c(Br)n1CC(=O)c1ccccc1`, the half-inhibitory concentration (IC50) in test [1] was 1.96 µM. Further, the inhibition in test [2] stood at 82.1%.
For the molecule `CC1CCc2cc(F)ccc2N1C(=O)CCl` (stereo not drawn), the IC50 in test [1] is 10.5 µM. Further, in test [2], the inhibition turned out to be 77.7%.
As for `COC(=O)c1ccc(-n2c(C)cc(C(=O)CCl)c2C)cc1`, the 50% inhibitory concentration (IC50) in test [1] was 21.9 µM. Moreover, the inhibition in test [2] was found to be 66.8%.
